The source made the active and inactive calls. No cut-off for these calls is given here.
How the values were obtained:
Rattus norvegicus [1] = test: Inhibition of the IgE-mediated passive cutaneous anaphylaxis (PCA) reaction in rat after oral administration; Inactive at 20 mg/kg; assay type: functional, organism-based; design: dose 20 mg/kg
Rattus norvegicus [2] = test: Inhibition of the IgE-mediated passive cutaneous anaphylaxis (PCA) reaction in rat after intravenous administration; Range 0.104; assay type: functional
Rattus norvegicus [3] = test: Inhibition of the IgE-mediated passive cutaneous anaphylaxis (PCA) reaction in rat after intravenous administration; Range 0.072-0.41; assay type: functional
Rattus norvegicus [4] = test: Inhibition of the IgE-mediated passive cutaneous anaphylaxis (PCA) reaction in rat after intravenous administration; Range 0.043-0.12; assay type: functional
Rattus norvegicus [5] = test: Inhibition of the IgE-mediated passive cutaneous anaphylaxis (PCA) reaction in rat after intravenous administration; Range 0.20-0.5; assay type: functional
Rattus norvegicus [6] = test: Inhibition of the IgE-mediated passive cutaneous anaphylaxis (PCA) reaction in rat after oral administration; Range 0.20-0.83; assay type: functional
Rattus norvegicus [7] = test: Inhibition of the IgE-mediated passive cutaneous anaphylaxis (PCA) reaction in rat after oral administration; Range 2.89-3.99; assay type: functional
Rattus norvegicus [8] = test: Inhibition of the IgE-mediated passive cutaneous anaphylaxis (PCA) reaction in rat after oral administration; Range 0.182-1.56; assay type: functional
Rattus norvegicus [9] = test: Inhibition of the IgE-mediated passive cutaneous anaphylaxis (PCA) reaction in rat after oral administration; Range 5.21-7.35; assay type: functional
Rattus norvegicus [10] = test: Inhibition of the IgE-mediated passive cutaneous anaphylaxis (PCA) reaction in rat after intravenous administration; Range 0.34-0.45; assay type: functional
Rattus norvegicus [11] = test: Inhibition of the IgE-mediated passive cutaneous anaphylaxis (PCA) reaction in rat after oral administration; Range 0.65-6.05; assay type: functional
Rattus norvegicus [12] = test: Inhibition of the IgE-mediated passive cutaneous anaphylaxis (PCA) reaction in rat after oral administration; Range 2.71-7.46; assay type: functional
Rattus norvegicus [13] = test: Inhibition of the IgE-mediated passive cutaneous anaphylaxis (PCA) reaction in rat after intravenous administration; Range 1.73-30.03; assay type: functional
Rattus norvegicus [14] = test: Inhibition of the IgE-mediated passive cutaneous anaphylaxis (PCA) reaction in rat after intravenous administration; Range 2.22-5.31; assay type: functional
Rattus norvegicus [15] = test: Inhibition of the IgE-mediated passive cutaneous anaphylaxis (PCA) reaction in rat after oral administration; Range 0.29-6.49; assay type: functional
Rattus norvegicus [16] = test: Inhibition of the IgE-mediated passive cutaneous anaphylaxis (PCA) reaction in rat after oral administration; NA means inactive; assay type: functional, organism-based
Rattus norvegicus [17] = test: Inhibition of the IgE-mediated passive cutaneous anaphylaxis (PCA) reaction in rat after intravenous administration; Range 0.047-0.108; assay type: functional
Rattus norvegicus [18] = test: Inhibition of the IgE-mediated passive cutaneous anaphylaxis (PCA) reaction in rat after intravenous administration; Range 0.014-0.029; assay type: functional
Rattus norvegicus [19] = test: Inhibition of the IgE-mediated passive cutaneous anaphylaxis (PCA) reaction in rat after oral administration; Range 0.51-7.81; assay type: functional
Rattus norvegicus [20] = test: Inhibition of the IgE-mediated passive cutaneous anaphylaxis (PCA) reaction in rat after intravenous administration; Range 0.025-0.11; assay type: functional
Rattus norvegicus [21] = test: Inhibition of the IgE-mediated passive cutaneous anaphylaxis (PCA) reaction in rat after intravenous administration; Range 0.12-1.07; assay type: functional
Rattus norvegicus [22] = test: Inhibition of the IgE-mediated passive cutaneous anaphylaxis (PCA) reaction in rat after oral administration; NA means inactive at 1 and 10 mg/Kg; assay type: functional, organism-based
Rattus norvegicus [23] = test: Inhibition of the IgE-mediated passive cutaneous anaphylaxis (PCA) reaction in rat after oral administration; Range 12.3-33.8; assay type: functional
Rattus norvegicus [24] = test: Inhibition of the IgE-mediated passive cutaneous anaphylaxis (PCA) reaction in rat after intravenous administration; Range 0.06-0.22; assay type: functional
Rattus norvegicus [25] = test: Inhibition of the IgE-mediated passive cutaneous anaphylaxis (PCA) reaction in rat after oral administration; Range 0.37-0.65; assay type: functional
Rattus norvegicus [26] = test: Inhibition of the IgE-mediated passive cutaneous anaphylaxis (PCA) reaction in rat after intravenous administration; Range 0.013-0.023; assay type: functional
Rattus norvegicus [27] = test: Inhibition of the IgE-mediated passive cutaneous anaphylaxis (PCA) reaction in rat after oral administration; Range 0.06-0.199; assay type: functional
Rattus norvegicus [28] = test: Inhibition of the IgE-mediated passive cutaneous anaphylaxis (PCA) reaction in rat after intravenous administration; Range 0.007-0.049; assay type: functional
Rattus norvegicus [29] = test: Inhibition of the IgE-mediated passive cutaneous anaphylaxis (PCA) reaction in rat after oral administration; Range 0.07-22.7; assay type: functional
Rattus norvegicus [30] = test: Inhibition of the IgE-mediated passive cutaneous anaphylaxis (PCA) reaction in rat after intravenous administration; Range 0.1-0.44; assay type: functional
Rattus norvegicus [31] = test: Inhibition of the IgE-mediated passive cutaneous anaphylaxis (PCA) reaction in rat after intravenous administration; Range 0.43-0.74; assay type: functional
Rattus norvegicus [32] = test: Inhibition of the IgE-mediated passive cutaneous anaphylaxis (PCA) reaction in rat after intravenous administration; Range 0.31-0.45; assay type: functional
Rattus norvegicus [33] = test: Inhibition of the IgE-mediated passive cutaneous anaphylaxis (PCA) reaction in rat after oral administration; Range 0.07-0.03; assay type: functional
Rattus norvegicus [34] = test: Inhibition of the IgE-mediated passive cutaneous anaphylaxis (PCA) reaction in rat after intravenous administration; Range 0.004-0.006; assay type: functional
Rattus norvegicus [35] = test: Inhibition of the IgE-mediated passive cutaneous anaphylaxis (PCA) reaction in rat after intravenous administration; Range 0.052-0.43; assay type: functional
Rattus norvegicus [36] = test: Inhibition of the IgE-mediated passive cutaneous anaphylaxis (PCA) reaction in rat after oral administration; Range 0.031-0.15; assay type: functional
Rattus norvegicus [37] = test: Inhibition of the IgE-mediated passive cutaneous anaphylaxis (PCA) reaction in rat after intravenous administration; Range 0.0103-0.0214; assay type: functional
Rattus norvegicus [38] = test: Inhibition of the IgE-mediated passive cutaneous anaphylaxis (PCA) reaction in rat after intravenous administration; Range 0.066-0.453; assay type: functional
Rattus norvegicus [39] = test: Inhibition of the IgE-mediated passive cutaneous anaphylaxis (PCA) reaction in rat after oral administration; Range 0.021-0.089; assay type: functional
Rattus norvegicus [40] = test: Inhibition of the IgE-mediated passive cutaneous anaphylaxis (PCA) reaction in rat after oral administration; Range 0.21-7.6; assay type: functional
Rattus norvegicus [41] = test: Inhibition of the IgE-mediated passive cutaneous anaphylaxis (PCA) reaction in rat after oral administration at concentration of 10 mg/Kg of compound; assay type: functional
Rattus norvegicus [42] = test: Inhibition of the IgE-mediated passive cutaneous anaphylaxis (PCA) reaction in rat after intravenous administration; Range 0.08-0.37; assay type: functional
Rattus norvegicus [43] = test: Inhibition of the IgE-mediated passive cutaneous anaphylaxis (PCA) reaction in rat after intravenous administration; Range 1.31-4.63; assay type: functional
Rattus norvegicus [44] = test: Inhibition of the IgE-mediated passive cutaneous anaphylaxis (PCA) reaction in rat after oral administration of 10 mg/Kg of compound; assay type: functional
Rattus norvegicus [45] = test: Inhibition of the IgE-mediated passive cutaneous anaphylaxis (PCA) reaction in rat after intravenous administration; Range 0.22-0.59; assay type: functional
Rattus norvegicus [46] = test: Inhibition of the IgE-mediated passive cutaneous anaphylaxis (PCA) reaction in rat after oral administration; Range 1.88-2.85; assay type: functional
Rattus norvegicus [47] = test: Inhibition of the IgE-mediated passive cutaneous anaphylaxis (PCA) reaction in rat after intravenous administration; Range 1.07-3.93; assay type: functional
Rattus norvegicus [48] = test: Inhibition of the IgE-mediated passive cutaneous anaphylaxis (PCA) reaction in rat after intravenous administration; Range 0.39-0.96; assay type: functional
Rattus norvegicus [49] = test: Inhibition of the IgE-mediated passive cutaneous anaphylaxis (PCA) reaction in rat after oral administration; Range 2.51-4.1; assay type: functional
Rattus norvegicus [50] = test: Inhibition of the IgE-mediated passive cutaneous anaphylaxis (PCA) reaction in rat after intravenous administration; Range 0.08-1.71; assay type: functional
Rattus norvegicus [51] = test: Inhibition of the IgE-mediated passive cutaneous anaphylaxis (PCA) reaction in rat after oral administration; Range 2.47-3.45; assay type: functional
Rattus norvegicus [52] = test: Inhibition of the IgE-mediated passive cutaneous anaphylaxis (PCA) reaction in rat after intravenous administration; Range 2.22-3.63; assay type: functional

O=C(O)c1ncn2c1c(O)nc1ccccc12
ED50 (Rattus norvegicus [1]): inactive
ED50 (Rattus norvegicus [2]): 0.104 mg/kg

COc1cccc2sc3nc(C(=O)O)cn3c12
ED50 (Rattus norvegicus [3]): 0.16 mg/kg

C[S+]([O-])c1ccc2ccc3nc(C(=O)O)cn3c2c1 (stereo not drawn)
ED50 (Rattus norvegicus [4]): 0.076 mg/kg

O=C(Nc1nn[nH]n1)c1cn2c(ccc3ccccc32)n1
ED50 (Rattus norvegicus [5]): 0.31 mg/kg
ED50 (Rattus norvegicus [6]): 0.54 mg/kg

COC(=O)c1cn2c(n1)COc1ccc(NC(C)=O)cc1-2
ED50 (Rattus norvegicus [7]): 3.48 mg/kg

CCn1c(=O)c2cc(-c3nn[nH]n3)cn2c2ccccc21
ED50 (Rattus norvegicus [8]): 0.44 mg/kg

O=C(O)c1cn2c(n1)CCc1ccccc1-2
ED50 (Rattus norvegicus [9]): 6.14 mg/kg
ED50 (Rattus norvegicus [10]): 0.39 mg/kg

CC1(C)OCC(COC(=O)c2cn3c(ccc4ccccc43)n2)O1 (stereo not drawn)
ED50 (Rattus norvegicus [11]): 1.7 mg/kg

O=Cc1cn2c(n1)COc1ccccc1-2
ED50 (Rattus norvegicus [12]): 4.27 mg/kg
ED50 (Rattus norvegicus [13]): 4.79 mg/kg

COc1ccc2ccc3nc(CN)cn3c2c1.Cl.Cl
ED50 (Rattus norvegicus [14]): 3.39 mg/kg

OCc1cn2c(n1)COc1ccccc1-2
ED50 (Rattus norvegicus [15]): 2.73 mg/kg

CC(=O)Nc1ccc2c(c1)-n1cc(C(=O)O)nc1CO2
ED50 (Rattus norvegicus [16]): inactive
ED50 (Rattus norvegicus [17]): 0.073 mg/kg

CCCn1c(=O)c2cc(C(=O)O)nn2c2ccccc21
ED50 (Rattus norvegicus [18]): 0.023 mg/kg

CS(=O)(=O)c1cc2nc(C(=O)O)cn2c2ccccc12
ED50 (Rattus norvegicus [19]): 1.64 mg/kg
ED50 (Rattus norvegicus [20]): 0.047 mg/kg

O=C(Nc1nn[nH]n1)c1cn2c(n1)COc1ccccc1-2
ED50 (Rattus norvegicus [21]): 0.33 mg/kg
ED50 (Rattus norvegicus [22]): inactive

O=C(O)c1cc2c(=O)n(-c3ccccc3)c3ccccc3n2c1
ED50 (Rattus norvegicus [23]): 18.9 mg/kg

CCn1c(=O)c2cc(C(=O)O)nn2c2ccccc21
ED50 (Rattus norvegicus [24]): 0.11 mg/kg

CCOC(=O)C(=O)Nc1ccc2c(c1)-n1cc(C(=O)OC)nc1CO2
ED50 (Rattus norvegicus [25]): 0.5 mg/kg

CCCCn1c(=O)c2cc(C(=O)O)cn2c2ccc(Cl)cc21
ED50 (Rattus norvegicus [26]): 0.019 mg/kg
ED50 (Rattus norvegicus [27]): 0.114 mg/kg

Clc1ccc2c(Cl)cc3nc(-c4nn[nH]n4)cn3c2c1
ED50 (Rattus norvegicus [28]): 0.016 mg/kg
ED50 (Rattus norvegicus [29]): 0.5 mg/kg

Cn1c(=O)c2cc(C(=O)O)nn2c2ccccc21
ED50 (Rattus norvegicus [30]): 0.19 mg/kg

Nc1nnnn1C(=O)c1cn2c(n1)COc1ccccc1-2
ED50 (Rattus norvegicus [22]): inactive
ED50 (Rattus norvegicus [31]): 0.58 mg/kg

Cc1nc(C(=O)O)c2c(O)nc3ccccc3n12
ED50 (Rattus norvegicus [32]): 0.37 mg/kg

CCCCCCc1cc([S+](C)(=N)[O-])cc2c(=O)c3cc(C(=O)O)ccc3oc12.NC(CO)(CO)CO (stereo not drawn)
ED50 (Rattus norvegicus [33]): 0.19 mg/kg
ED50 (Rattus norvegicus [34]): 0.005 mg/kg

O=Cc1cn2c(cnc3ccccc32)n1
ED50 (Rattus norvegicus [35]): 0.137 mg/kg
ED50 (Rattus norvegicus [36]): 0.073 mg/kg

O=C(O)C(=O)Nc1ccc2c(c1)-n1cc(C(=O)O)nc1CO2
ED50 (Rattus norvegicus [37]): 0.0172 mg/kg

OCc1cn2c(cnc3ccccc32)n1
ED50 (Rattus norvegicus [38]): 0.156 mg/kg
ED50 (Rattus norvegicus [39]): 0.061 mg/kg

O=Cc1cn2c(cc(Cl)c3ccc(Cl)cc32)n1
ED50 (Rattus norvegicus [40]): 0.5 mg/kg

O/N=C\c1cn2c(n1)COc1ccccc1-2
Inhibition (Rattus norvegicus [41]): 42%

CCc1ccc2ccc3nc(C(=O)O)cn3c2c1
ED50 (Rattus norvegicus [42]): 0.16 mg/kg

O=C(O)c1cn2c(n1)COc1ccc([N+](=O)[O-])cc1-2
ED50 (Rattus norvegicus [43]): 2.22 mg/kg

O=C(OCC(O)CO)c1cn2c(ccc3ccccc32)n1 (stereo not drawn)
Inhibition (Rattus norvegicus [44]): 47%

C[S+](=N)([O-])c1cc2nc(C(=O)O)cn2c2ccccc12 (stereo not drawn)
ED50 (Rattus norvegicus [45]): 0.35 mg/kg

CCn1c(=O)c2cc(C=O)cn2c2ccccc21
ED50 (Rattus norvegicus [46]): 2.53 mg/kg

O=C(O)c1cn2c(n1)N=S(=O)(c1ccccc1)c1ccccc1-2 (stereo not drawn)
ED50 (Rattus norvegicus [47]): 1.92 mg/kg

COc1ccc2c(c1)sc1nc(C(=O)O)cn12
ED50 (Rattus norvegicus [48]): 0.62 mg/kg

O=C(OCCCl)c1cn2c(ccc3ccccc32)n1
ED50 (Rattus norvegicus [49]): 3.5 mg/kg

O=C(O)c1cc2c(O)nc3ccccc3n2n1
ED50 (Rattus norvegicus [50]): 0.33 mg/kg

O=C(O)c1cn2c(n1)COc1ccccc1-2
ED50 (Rattus norvegicus [51]): 3.2 mg/kg
ED50 (Rattus norvegicus [52]): 2.89 mg/kg
